From patent US10308639B2, “Phosphatidylinositol 3-kinase inhibitors” (Gilead Sciences, Inc., priority 2014, dated 2019)
Like-named read-outs stand apart in the source and are kept apart here.

Legend:
Format in all cases: biochemical
PI3Kβ = molecular target: T1, PI3Kβ (Homo sapiens, UniProt P42338); test: TR-FRET enzymatic activity assay, PI3Kβ
T1 construct: made in house

PI3Kδ = molecular target: T2, PI3Kδ (Homo sapiens, UniProt O00329); test: TR-FRET enzymatic activity assay, PI3Kδ
T2 construct: made in house
T2 sequence (O00329 whole entry): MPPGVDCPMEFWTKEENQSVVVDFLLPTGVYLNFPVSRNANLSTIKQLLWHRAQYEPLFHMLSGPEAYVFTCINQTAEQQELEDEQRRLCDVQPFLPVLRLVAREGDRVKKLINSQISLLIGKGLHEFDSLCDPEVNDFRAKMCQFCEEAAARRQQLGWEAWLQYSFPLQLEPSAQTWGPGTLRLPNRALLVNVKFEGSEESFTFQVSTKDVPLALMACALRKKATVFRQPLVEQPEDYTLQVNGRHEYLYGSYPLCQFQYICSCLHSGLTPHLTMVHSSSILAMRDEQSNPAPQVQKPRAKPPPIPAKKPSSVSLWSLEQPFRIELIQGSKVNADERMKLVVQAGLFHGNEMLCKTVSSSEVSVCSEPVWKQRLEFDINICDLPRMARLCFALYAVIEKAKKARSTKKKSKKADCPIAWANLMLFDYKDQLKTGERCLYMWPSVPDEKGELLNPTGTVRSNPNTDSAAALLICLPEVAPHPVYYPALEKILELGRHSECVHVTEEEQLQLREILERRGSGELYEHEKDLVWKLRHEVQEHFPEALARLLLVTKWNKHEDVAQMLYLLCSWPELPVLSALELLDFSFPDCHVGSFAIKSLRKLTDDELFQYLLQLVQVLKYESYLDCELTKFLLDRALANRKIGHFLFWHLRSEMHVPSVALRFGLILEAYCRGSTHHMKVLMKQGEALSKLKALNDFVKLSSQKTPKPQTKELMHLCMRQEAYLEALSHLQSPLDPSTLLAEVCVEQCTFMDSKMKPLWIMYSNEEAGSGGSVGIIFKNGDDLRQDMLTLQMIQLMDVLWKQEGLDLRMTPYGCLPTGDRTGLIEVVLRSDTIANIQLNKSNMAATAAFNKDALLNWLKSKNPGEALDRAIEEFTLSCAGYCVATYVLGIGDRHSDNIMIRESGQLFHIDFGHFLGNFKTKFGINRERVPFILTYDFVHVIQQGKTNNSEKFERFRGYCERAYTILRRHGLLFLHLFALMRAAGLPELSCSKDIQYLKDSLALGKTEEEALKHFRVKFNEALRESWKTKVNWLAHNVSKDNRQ
T2 sequence (P27986 whole entry partner): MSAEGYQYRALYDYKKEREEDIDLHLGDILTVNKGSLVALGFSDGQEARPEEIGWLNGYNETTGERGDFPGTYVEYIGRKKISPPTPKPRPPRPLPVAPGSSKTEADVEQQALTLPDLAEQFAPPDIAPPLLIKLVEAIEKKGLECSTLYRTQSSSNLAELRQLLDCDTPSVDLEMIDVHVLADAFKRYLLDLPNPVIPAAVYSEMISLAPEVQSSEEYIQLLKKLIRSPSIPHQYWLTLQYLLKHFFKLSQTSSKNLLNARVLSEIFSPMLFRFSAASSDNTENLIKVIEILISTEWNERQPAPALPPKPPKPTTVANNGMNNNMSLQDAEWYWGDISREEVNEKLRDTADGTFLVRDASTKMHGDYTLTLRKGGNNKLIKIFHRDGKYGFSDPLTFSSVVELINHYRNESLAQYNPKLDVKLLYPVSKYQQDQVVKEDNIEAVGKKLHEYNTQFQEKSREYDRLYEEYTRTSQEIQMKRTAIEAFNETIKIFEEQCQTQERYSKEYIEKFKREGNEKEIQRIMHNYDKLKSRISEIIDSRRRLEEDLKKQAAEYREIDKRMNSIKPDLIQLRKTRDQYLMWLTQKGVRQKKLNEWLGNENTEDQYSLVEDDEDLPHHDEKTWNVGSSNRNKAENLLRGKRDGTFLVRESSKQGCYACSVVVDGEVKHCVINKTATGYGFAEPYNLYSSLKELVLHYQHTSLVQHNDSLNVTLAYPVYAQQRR

PI3Kγ = molecular target: T3, PI3Kγ (Homo sapiens, UniProt P48736); test: TR-FRET enzymatic activity assay, PI3Kγ; details: read-out: PI3Kγ IC50
T3 construct: made in house
T3 sequence (P48736 whole entry): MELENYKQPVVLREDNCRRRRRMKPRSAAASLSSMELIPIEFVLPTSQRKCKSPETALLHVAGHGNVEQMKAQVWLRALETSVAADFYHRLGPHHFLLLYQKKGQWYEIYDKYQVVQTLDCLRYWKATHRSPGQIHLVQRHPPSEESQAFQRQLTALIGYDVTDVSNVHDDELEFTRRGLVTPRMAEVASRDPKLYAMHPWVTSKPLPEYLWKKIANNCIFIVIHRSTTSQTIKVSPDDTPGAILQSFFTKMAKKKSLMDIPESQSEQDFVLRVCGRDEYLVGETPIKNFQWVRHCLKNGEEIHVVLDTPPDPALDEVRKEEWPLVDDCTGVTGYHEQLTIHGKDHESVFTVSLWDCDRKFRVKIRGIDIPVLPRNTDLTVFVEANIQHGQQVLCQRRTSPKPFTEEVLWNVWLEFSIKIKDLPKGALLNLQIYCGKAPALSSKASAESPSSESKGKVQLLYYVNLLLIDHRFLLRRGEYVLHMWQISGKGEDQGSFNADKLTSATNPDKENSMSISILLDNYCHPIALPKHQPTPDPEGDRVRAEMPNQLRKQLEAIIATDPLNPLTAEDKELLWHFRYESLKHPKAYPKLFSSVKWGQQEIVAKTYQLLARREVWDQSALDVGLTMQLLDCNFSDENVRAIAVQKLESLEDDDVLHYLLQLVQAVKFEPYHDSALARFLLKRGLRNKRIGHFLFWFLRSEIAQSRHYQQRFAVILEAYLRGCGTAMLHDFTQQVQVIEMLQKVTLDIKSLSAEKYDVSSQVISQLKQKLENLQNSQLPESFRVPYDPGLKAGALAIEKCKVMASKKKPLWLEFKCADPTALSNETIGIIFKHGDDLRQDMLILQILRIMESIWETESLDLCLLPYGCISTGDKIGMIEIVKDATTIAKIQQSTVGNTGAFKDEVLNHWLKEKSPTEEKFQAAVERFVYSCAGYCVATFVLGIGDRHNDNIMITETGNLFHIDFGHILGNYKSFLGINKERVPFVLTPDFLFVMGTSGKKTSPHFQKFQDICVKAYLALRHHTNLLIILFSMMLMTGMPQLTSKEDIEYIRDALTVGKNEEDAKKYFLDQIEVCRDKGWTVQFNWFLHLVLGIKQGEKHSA
Summary of the method: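 Enzymatic activity against the PI3K isoforms was measured using a time-resolved fluorescence resonance energy transfer (TR-FRET) assay.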

[1] = Table 2, TR-FRET, 2x Km ATP, 30 minutes at 25° C.

T1 sequence (P42338 whole entry): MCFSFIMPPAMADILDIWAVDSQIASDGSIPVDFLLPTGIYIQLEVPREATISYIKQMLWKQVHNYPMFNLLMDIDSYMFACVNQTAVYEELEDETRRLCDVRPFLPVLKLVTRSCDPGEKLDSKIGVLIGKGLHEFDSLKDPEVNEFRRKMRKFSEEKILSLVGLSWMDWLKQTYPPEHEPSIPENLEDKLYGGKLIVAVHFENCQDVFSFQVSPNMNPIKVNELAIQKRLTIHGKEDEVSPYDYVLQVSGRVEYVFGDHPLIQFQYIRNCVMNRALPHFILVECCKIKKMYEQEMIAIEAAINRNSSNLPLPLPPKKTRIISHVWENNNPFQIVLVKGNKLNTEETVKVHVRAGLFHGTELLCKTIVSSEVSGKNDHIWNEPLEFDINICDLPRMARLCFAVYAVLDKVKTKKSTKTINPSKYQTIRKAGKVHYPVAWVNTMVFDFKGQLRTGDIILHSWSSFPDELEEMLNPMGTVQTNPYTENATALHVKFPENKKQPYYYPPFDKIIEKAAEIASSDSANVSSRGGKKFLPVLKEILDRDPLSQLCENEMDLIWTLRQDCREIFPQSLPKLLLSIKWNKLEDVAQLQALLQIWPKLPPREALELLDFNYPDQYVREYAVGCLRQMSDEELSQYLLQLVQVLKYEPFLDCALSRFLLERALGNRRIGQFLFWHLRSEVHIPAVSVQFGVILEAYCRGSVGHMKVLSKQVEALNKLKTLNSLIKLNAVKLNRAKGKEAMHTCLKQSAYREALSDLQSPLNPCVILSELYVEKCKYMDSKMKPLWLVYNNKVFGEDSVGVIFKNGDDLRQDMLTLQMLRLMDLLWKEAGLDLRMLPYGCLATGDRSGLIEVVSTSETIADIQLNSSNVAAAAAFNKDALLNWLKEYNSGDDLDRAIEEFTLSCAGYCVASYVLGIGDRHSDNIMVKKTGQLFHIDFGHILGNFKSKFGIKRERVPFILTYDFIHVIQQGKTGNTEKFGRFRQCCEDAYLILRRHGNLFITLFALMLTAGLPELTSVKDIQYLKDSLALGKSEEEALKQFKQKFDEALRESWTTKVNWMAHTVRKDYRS
T1 sequence (P27986 whole entry partner): as the sequence (P27986 whole entry partner) above

| Structure (SMILES) | IC50 (PI3Kβ; Table 2a, same assay) | IC50 (PI3Kδ; Table 2a, same assay) | IC50 (PI3Kγ; Table 2a, same assay) | IC50 (PI3Kβ; [1]) | IC50 (PI3Kδ; [1]) | IC50 (PI3Kγ; [1]) | IC50 (PI3Kγ) |
| --- | --- | --- | --- | --- | --- | --- | --- |
| O=c1c2c(Cl)cccc2nc([C@@H](Nc2ncnc3scnc23)C2CC2)n1-c1cc[nH]n1 [Compound 26, (S)-5-chloro-2-(cyclopropyl(thiazolo[5,4-d]pyrimidin-7-ylamino)methyl)-3-(1H-pyrazol-3-yl)quinazolin-4(3H)-one] | – | – | – | 0.003 µM | 0.0006 µM | 1.3 µM | – |
| CCC[C@H](Nc1nc(N)nc(N)c1C#N)c1nc2ccc(F)c(Cl)c2c(=O)n1-c1cc[nH]n1 [Compound 268, (S)-2,4-diamino-6-((1-(5-chloro-6-fluoro-4-oxo-3-(1H-pyrazol-3-yl)-3,4-dihydroquinazolin-2-yl)butyl)amino)pyrimidine-5-carbonitrile] | 0.005 µM | 0.002 µM | 0.9 µM | – | – | – | – |
| CC[C@H](Nc1ncnc2scnc12)c1nc2cccc(Cl)c2c(=O)n1-c1n[nH]cc1Br [Compound 77, (S)-3-(4-bromo-1H-pyrazol-3-yl)-5-chloro-2-(1-(thiazolo[5,4-d]pyrimidin-7-ylamino)propyl)quinazolin-4(3H)-one] | – | – | – | 0.14 µM | 0.005 µM | 1.7 µM | – |
| C[C@H](Nc1ncnc(N)c1C#N)c1nc2cccc(Cl)c2c(=O)n1-c1cc(C(F)(F)F)[nH]n1 [Compound 6, (S)-4-amino-6-((1-(5-chloro-4-oxo-3-(5-(trifluoromethyl)-1H-pyrazol-3-yl)-3,4-dihydroquinazolin-2-yl)ethyl)amino)pyrimidine-5-carbonitrile] | – | – | – | 0.73 µM | 0.15 µM | – | > 10 µM |
| CC[C@H](Nc1nc(N)nc(N)c1Cl)c1nc2c(C#N)cccc2c(=O)n1-c1cc[nH]n1 [Compound 78, (S)-2-(1-((2,6-diamino-5-chloropyrimidin-4-yl)amino)propyl)-4-oxo-3-(1H-pyrazol-3-yl)-3,4-dihydroquinazoline-8-carbonitrile] | – | – | – | 0.19 µM | 0.053 µM | – | > 10 µM |
| C[C@H](Nc1nc(N)nc(N)c1Cl)c1nc2cccc(Cl)c2c(=O)n1-c1cn[nH]c1 [Compound 157, (S)-5-chloro-2-(1-((2,6-diamino-5-chloropyrimidin-4-yl)amino)ethyl)-3-(1H-pyrazol-4-yl)quinazolin-4(3H)-one] | 0.015 µM | 0.002 µM | 1.2 µM | – | – | – | – |
| N#Cc1c(N)nc(N)nc1N[C@H](c1nc2c(Cl)cc(F)cc2c(=O)n1-c1c[nH]cn1)C1CC1 [Compound 281, (S)-2,4-diamino-6-(((8-chloro-6-fluoro-3-(1H-imidazol-4-yl)-4-oxo-3,4-dihydroquinazolin-2-yl)(cyclopropyl)methyl)amino)pyrimidine-5-carbonitrile] | 0.002 µM | 0.001 µM | 0.62 µM | – | – | – | – |

Second part, the compound after the results:

| IC50 (PI3Kβ; Table 2a, same assay) | IC50 (PI3Kδ; Table 2a, same assay) | IC50 (PI3Kγ; Table 2a, same assay) | IC50 (PI3Kβ; [1]) | IC50 (PI3Kδ; [1]) | IC50 (PI3Kγ; [1]) | IC50 (PI3Kγ) | Structure (SMILES) |
| --- | --- | --- | --- | --- | --- | --- | --- |
| 0.004 µM | 0.004 µM | 7.8 µM | – | – | – | – | N#Cc1c(N)nc(N)nc1N[C@H](c1nc2c(Cl)cc(F)cc2c(=O)n1-c1cc[nH]n1)C1CCC1 [Compound 130, (S)-2,4-diamino-6-(((8-chloro-6-fluoro-4-oxo-3-(1H-pyrazol-3-yl)-3,4-dihydroquinazolin-2-yl)(cyclobutyl)methyl)amino)pyrimidine-5-carbonitrile] |
| 0.093 µM | 0.007 µM | > 10 µM | – | – | – | – | Cc1c[nH]nc1-n1c([C@@H](Nc2nc(N)nc(N)c2C#N)C2CC2)nc2c(C#N)cccc2c1=O [Compound 241, (S)-2-(cyclopropyl((2,6-diamino-5-cyanopyrimidin-4-yl)amino)methyl)-3-(4-methyl-1H-pyrazol-3-yl)-4-oxo-3,4-dihydroquinazoline-8-carbonitrile] |
| 0.062 µM | 0.021 µM | 4.7 µM | – | – | – | – | C[C@H](Nc1nc(N)nc(C(F)F)c1C#N)c1nc2c(F)ccc(F)c2c(=O)n1-c1cc[nH]n1 [Compound 192, (S)-2-amino-4-((1-(5,8-difluoro-4-oxo-3-(1H-pyrazol-3-yl)-3,4-dihydroquinazolin-2-yl)ethyl)amino)-6-(difluoromethyl)pyrimidine-5-carbonitrile] |
| 0.002 µM | 0.001 µM | 0.34 µM | – | – | – | – | C[C@H](Nc1nc(N)nc(N)c1C#N)c1nc2c(C(F)(F)F)cccc2c(=O)n1-c1cc[nH]n1 [Compound 135, (S)-2,4-diamino-6-((1-(4-oxo-3-(1H-pyrazol-3-yl)-8-(trifluoromethyl)-3,4-dihydroquinazolin-2-yl)ethyl)amino)pyrimidine-5-carbonitrile] |
| 0.003 µM | 0.004 µM | 2.7 µM | – | – | – | – | N#Cc1c(N)nc(N)nc1N[C@H](c1nc2cc(F)cc(Cl)c2c(=O)n1-c1cc[nH]n1)C1CC1 [Compound 239, (S)-2,4-diamino-6-(((5-chloro-7-fluoro-4-oxo-3-(1H-pyrazol-3-yl)-3,4-dihydroquinazolin-2-yl)(cyclopropyl)methyl)amino)pyrimidine-5-carbonitrile] |
| 0.001 µM | 0.0006 µM | 0.87 µM | – | – | – | – | C[C@H](Nc1nc(N)nc(N)c1C#N)c1nc2c(Cl)ccc(C(F)F)c2c(=O)n1-c1cc[nH]n1 [Compound 228, (S)-2,4-diamino-6-((1-(8-chloro-5-(difluoromethyl)-4-oxo-3-(1H-pyrazol-3-yl)-3,4-dihydroquinazolin-2-yl)ethyl)amino)pyrimidine-5-carbonitrile] |
| – | – | – | 0.34 µM | 0.019 µM | – | > 10 µM | CC[C@H](Nc1ncnc2scnc12)c1nc2c(Cl)ccc(Cl)c2c(=O)n1-c1n[nH]cc1Br [Compound 86, (S)-3-(4-bromo-1H-pyrazol-3-yl)-5,8-dichloro-2-(1-(thiazolo[5,4-d]pyrimidin-7-ylamino)propyl)quinazolin-4(3H)-one] |
| – | – | – | 0.018 µM | 0.004 µM | – | > 10 µM | CC[C@H](Nc1ncnc2scnc12)c1nc2c(Cl)ccc(Cl)c2c(=O)n1-c1cc[nH]n1 [Compound 46, (S)-5,8-dichloro-3-(1H-pyrazol-3-yl)-2-(1-(thiazolo[5,4-d]pyrimidin-7-ylamino)propyl)quinazolin-4(3H)-one] |
